Measurements as given in patent US10322191B2, “Targeted conjugates and particles and formulations thereof” (TARVEDA THERAPEUTICS, INC., priority 2014, dated 2019).
Read-outs that look alike come from different tables or passages of the source. Bridge positions count the residues as written; N and C are the ends. Square brackets hold non-standard residues; d marks the D form. Peptide text beside a SMILES is read from it. * marks the point of attachment. NH(CH2)2SS(DM1) = COc1cc2cc(c1Cl)N(C)C(=O)C[C@H](OC(=O)[C@H](C)N(C)C(=O)CCSSCCN*)[C@]1(C)O[C@H]1[C@H](C)[C@@H]1C[C@@](O)(NC(=O)O1)[C@H](OC)/C=C/C=C(\C)C2; X1 = COc1cc2cc(c1Cl)N(C)C(=O)C[C@H](OC(=O)[C@H](C)N(C)C(=O)CCS*)[C@]1(C)O[C@H]1[C@H](C)[C@@H]1C[C@@](O)(NC(=O)O1)[C@H](OC)/C=C/C=C(\C)C2; Mpa = O=C(O)CCS

Tested on: NCI-H524 (ATCC) human lung cancer cells
Type: cell-based
Conditions: Table 15
Description: Conjugates were assessed in an in vitro assay evaluating inhibition of cell proliferation. NCI-H524 (ATCC) human lung cancer cells were plated in 96 well, V-bottomed plates (Costar) at a concentration of 5,000 cells/well and 24 hours later were treated with compound for 2 hours and further incubated 70 hours. Compound starting dose was 20 μM and three-fold serial dilutions were done for a total of ten points. After 2 hours of treatment, cells were spun down, the drug containing media was removed, and fresh complete medium was added and used to resuspend the cells, which were spun again. After removal of the wash media, the cells were resuspended in complete medium, then transferred into white walled, flat bottomed 96 well plates. […] Proliferation was measured using CellTiter Glo reagent using the standard protocol (Promega) and a Glomax multi+detection system (Promega). Percent proliferation inhibition was calculated using the following formula: % inhibition=(control-treatment)/control*100. Control is defined as vehicle alone. IC50 curves were generated using the nonlinear regression analysis (four parameter) with GraphPad Prism 6.
Conjugates of the present invention were assessed in an in vitro assay evaluating inhibition of cell proliferation. NCI-H524 (ATCC) human lung cancer cells were plated in 96 well, V-bottomed plates (Costar) at a concentration of 5,000 cells/well. 24 hours later, cells were treated with either conjugate for 2 hours and further incubated 70 hours, or for octreotide competition experiments, treated with 100 μM octreotide for 30 min, and then treated with conjugate for 2 hours, and further incubated for 70 hours. Conjugate starting dose was 20 μM and three fold serial dilutions were done for a total of ten points. After 2 hours of treatment, cells were spun down, the drug containing media was removed, and fresh complete medium was added and used to resuspend the cells, which were spun again. After removal of the wash media, the cells were resuspended in complete medium, then transferred into white walled, flat bottomed 96 well plates. […] Proliferation was measured using CellTiter Glo reagent using the standard protocol (Promega) and a Glomax multi+detection system (Promega). Percent proliferation inhibition was calculated using the following formula: % inhibition=(control-treatment)/control*100. Control is defined as vehicle alone. IC50 curves were generated using the nonlinear regression analysis (four parameter) with GraphPad Prism 6.
Conjugates of the present invention were tested for their activity dependence on the somatostatin receptor. Active agent Z in the conjugate was selected from auristatin, carbazitaxel, DM1, doxorubicin, platinum, SN-38 and vinblastine. Active agent Z is connected to octreotide with various linkers. Proliferation IC50 values of the conjugates were measured. Proliferation IC50 values of the conjugates without octreotide competition were also measured. The ratio of IC50 with octreotide competition and IC50 without octreotide competition is an indicator of whether activity is at least partially dependent on bind to the somatostatin receptor.

[1] = treated 2 hours, further incubated 70 hours, read-out: H524 IC50
[2] = read-out: H524 IC50+ 100 uM octreotide, 100 μM octreotide for 30 min, then conjugate 2 hours, 70 hours incubation

SMILES	IC50 [1] [nM]	IC50 [2] [nM]
COc1cc2cc(c1Cl)N(C)C(=O)C[C@H](OC(=O)[C@H](C)N(C)C(=O)CCSC1CC(=O)N(CCCNC(=O)CC[C@H](NC(=O)[C@@H]3CSSC[C@H](NC(=O)[C@H](N)Cc4ccccc4)C(=O)N[C@@H](Cc4ccc(O)cc4)CN[C@H](Cc4c[nH]c5ccccc45)C(=O)N[C@@H](CCCCN)C(=O)N[C@@H]([C@@H](C)O)C(=O)N3)C(=O)NCCCN3C(=O)CC(SCCC(=O)N(C)[C@@H](C)C(=O)O[C@H]4CC(=O)N(C)c5cc(cc(OC)c5Cl)C/C(C)=C/C=C/[C@@H](OC)[C@@]5(O)C[C@H](OC(=O)N5)[C@@H](C)[C@@H]5O[C@@]45C)C3=O)C1=O)[C@]1(C)O[C@H]1[C@H](C)[C@@H]1C[C@@](O)(NC(=O)O1)[C@H](OC)/C=C/C=C(\C)C2 (stereo partly shown) [Conjugate 53]	42	175
COc1cc2cc(c1Cl)N(C)C(=O)C[C@H](OC(=O)[C@H](C)N(C)C(=O)CCSSCCNC(=O)[C@@H]1CSSC[C@H](NC(=O)[C@H](N)Cc3ccccc3)C(=O)N[C@@H](Cc3ccc(O)cc3)C(=O)N[C@H](Cc3c[nH]c4ccccc34)C(=O)N[C@@H](CCCCN)C(=O)N[C@@H]([C@@H](C)O)C(=O)N1)[C@]1(C)O[C@H]1[C@H](C)[C@@H]1C[C@@](O)(NC(=O)O1)[C@H](OC)/C=C/C=C(\C)C2 [Conjugate 59] (H-[dF]CY[dW]KTC-{NH(CH2)2SS(DM1)}; disulfide 2-7)	24	170
COc1cc2cc(c1Cl)N(C)C(=O)C[C@H](OC(=O)[C@H](C)N(C)C(=O)CCSSC[C@H](NC(=O)[C@@H]1CSSC[C@H](NC(=O)[C@H](N)Cc3ccccc3)C(=O)N[C@@H](Cc3ccc(O)cc3)C(=O)N[C@H](Cc3c[nH]c4ccccc34)C(=O)N[C@@H](CCCCN)C(=O)N[C@@H]([C@@H](C)O)C(=O)N1)C(=O)O)[C@]1(C)O[C@H]1[C@H](C)[C@@H]1C[C@@](O)(NC(=O)O1)[C@H](OC)/C=C/C=C(\C)C2 [Conjugate 61]	89	274
COc1cc2cc(c1Cl)N(C)C(=O)C[C@H](OC(=O)[C@H](C)N(C)C(=O)CCSSC[C@H](NC(=O)[C@@H]1CSSC[C@H](NC(=O)[C@H](N)Cc3ccccc3)C(=O)N[C@@H](Cc3ccc(O)cc3)C(=O)N[C@H](Cc3c[nH]c4ccccc34)C(=O)N[C@@H](CCCCN)C(=O)N[C@@H]([C@@H](C)O)C(=O)N1)C(=O)NC1CCCCC1)[C@]1(C)O[C@H]1[C@H](C)[C@@H]1C[C@@](O)(NC(=O)O1)[C@H](OC)/C=C/C=C(\C)C2 [Conjugate 63]	44	168
CCNC(=O)N[C@H](Cc1ccccc1)C(=O)N[C@H]1CSSC[C@@H](C(=O)N[C@H](C(=O)NCCSSCCC(=O)N(C)[C@@H](C)C(=O)O[C@H]2CC(=O)N(C)c3cc(cc(OC)c3Cl)C/C(C)=C/C=C/[C@@H](OC)[C@@]3(O)C[C@H](OC(=O)N3)[C@@H](C)[C@@H]3O[C@@]23C)[C@@H](C)O)NC(=O)[C@H]([C@@H](C)O)NC(=O)[C@H](CCCCN)NC(=O)[C@@H](Cc2c[nH]c3ccccc23)NC(=O)[C@H](Cc2ccc(O)cc2)NC1=O [Conjugate 65]	30	229
COc1cc2cc(c1Cl)N(C)C(=O)C[C@H](OC(=O)[C@H](C)N(C)C(=O)CCSSCCC(=O)N[C@H](Cc1ccccc1)C(=O)N[C@H]1CSSC[C@@H](C(=O)N[C@@H](Cc3c[nH]c4ccccc34)C(N)=O)NC(=O)[C@H](C(C)C)NC(=O)[C@H](CCCCN)NC(=O)[C@@H](Cc3c[nH]c4ccccc34)NC(=O)[C@H](Cc3ccc(O)cc3)NC1=O)[C@]1(C)O[C@H]1[C@H](C)[C@@H]1C[C@@](O)(NC(=O)O1)[C@H](OC)/C=C/C=C(\C)C2 [Conjugate 70] ([Mpa](X1)[dF]CY[dW]KVCW-NH2; disulfide 3-8)	317	417
COc1cc2cc(c1Cl)N(C)C(=O)C[C@H](OC(=O)[C@H](C)N(C)C(=O)CCSSCCC(=O)N[C@H](Cc1ccccc1)C(=O)N[C@H]1CSSC[C@@H](C(=O)N[C@H](C(=O)O)[C@@H](C)O)NC(=O)[C@H]([C@@H](C)O)NC(=O)[C@H](CCCCN)NC(=O)[C@@H](Cc3c[nH]c4ccccc34)NC(=O)[C@H](Cc3ccc(O)cc3)NC1=O)[C@]1(C)O[C@H]1[C@H](C)[C@@H]1C[C@@](O)(NC(=O)O1)[C@H](OC)/C=C/C=C(\C)C2 [Conjugate 74]	549	562
COc1cc2cc(c1Cl)N(C)C(=O)C[C@H](OC(=O)[C@H](C)N(C)C(=O)CCSSC(C)CCN[C@H](Cc1ccccc1)C(=O)N[C@H]1CSSC[C@@H](C(=O)N[C@H](CO)[C@@H](C)O)NC(=O)[C@H]([C@@H](C)O)NC(=O)[C@H](CCCCN)NC(=O)[C@@H](Cc3c[nH]c4ccccc34)NC(=O)[C@H](Cc3ccccc3)NC1=O)[C@]1(C)O[C@H]1[C@H](C)[C@@H]1C[C@@](O)(NC(=O)O1)[C@H](OC)/C=C/C=C(\C)C2 (stereo partly shown) [Conjugate 82]	148	867
COc1cc2cc(c1Cl)N(C)C(=O)C[C@H](OC(=O)[C@H](C)N(C)C(=O)CCSSCCCN1CCN(CC(=O)N[C@H](Cc3ccccc3)C(=O)N[C@H]3CSSC[C@@H](C(=O)N[C@H](CO)[C@@H](C)O)NC(=O)[C@H]([C@@H](C)O)NC(=O)[C@H](CCCCN)NC(=O)[C@@H](Cc4c[nH]c5ccccc45)NC(=O)[C@H](Cc4ccccc4)NC3=O)CC1)[C@]1(C)O[C@H]1[C@H](C)[C@@H]1C[C@@](O)(NC(=O)O1)[C@H](OC)/C=C/C=C(\C)C2 [Conjugate 86]	386	553
COc1cc2cc(c1Cl)N(C)C(=O)C[C@H](OC(=O)[C@H](C)N(C)C(=O)CCSSCCOCCOCCOCCOCCCN[C@H](Cc1ccccc1)C(=O)N[C@H]1CSSC[C@@H](C(=O)N[C@H](CO)[C@@H](C)O)NC(=O)[C@H]([C@@H](C)O)NC(=O)[C@H](CCCCN)NC(=O)[C@@H](Cc3c[nH]c4ccccc34)NC(=O)[C@H](Cc3ccccc3)NC1=O)[C@]1(C)O[C@H]1[C@H](C)[C@@H]1C[C@@](O)(NC(=O)O1)[C@H](OC)/C=C/C=C(\C)C2 [Conjugate 96]	206	397
COc1cc2cc(c1Cl)N(C)C(=O)C[C@H](OC(=O)[C@H](C)N(C)C(=O)CCSSCCOCCOCCOCCOCCC(=O)N[C@H](Cc1ccccc1)C(=O)N[C@H]1CSSC[C@@H](C(=O)N[C@H](CO)[C@@H](C)O)NC(=O)[C@H]([C@@H](C)O)NC(=O)[C@H](CCCCN)NC(=O)[C@@H](Cc3c[nH]c4ccccc34)NC(=O)[C@H](Cc3ccccc3)NC1=O)[C@]1(C)O[C@H]1[C@H](C)[C@@H]1C[C@@](O)(NC(=O)O1)[C@H](OC)/C=C/C=C(\C)C2 [Conjugate 98]	690	1120
COc1cc2cc(c1Cl)N(C)C(=O)C[C@H](OC(=O)[C@H](C)N(C)C(=O)CCSCCCN[C@H](Cc1ccccc1)C(=O)N[C@H]1CSSC[C@@H](C(=O)N[C@H](CO)[C@@H](C)O)NC(=O)[C@H]([C@@H](C)O)NC(=O)[C@H](CCCCN)NC(=O)[C@@H](Cc3c[nH]c4ccccc34)NC(=O)[C@H](Cc3ccccc3)NC1=O)[C@]1(C)O[C@H]1[C@H](C)[C@@H]1C[C@@](O)(NC(=O)O1)[C@H](OC)/C=C/C=C(\C)C2 [Conjugate 100]	303	1060
CCCCCCCCCCC(CCN[C@H](Cc1ccccc1)C(=O)N[C@H]1CSSC[C@@H](C(=O)N[C@@H](Cc2c[nH]c3ccccc23)C(N)=O)NC(=O)[C@H]([C@@H](C)O)NC(=O)[C@H](CCCCN)NC(=O)[C@@H](Cc2c[nH]c3ccccc23)NC(=O)[C@H](Cc2ccc(O)cc2)NC1=O)SSCCC(=O)N(C)[C@@H](C)C(=O)O[C@H]1CC(=O)N(C)c2cc(cc(OC)c2Cl)C/C(C)=C/C=C/[C@@H](OC)[C@@]2(O)C[C@H](OC(=O)N2)[C@@H](C)[C@@H]2O[C@@]12C (stereo partly shown) [Conjugate 102]	335	579
COc1cc2cc(c1Cl)N(C)C(=O)C[C@H](OC(=O)[C@H](C)N(C)C(=O)CCSC1CC(=O)N(CC3CCC(C(=O)N[C@H](Cc4ccccc4)C(=O)N[C@H]4CSSC[C@@H](C(=O)N[C@H](CO)[C@@H](C)O)NC(=O)[C@H]([C@@H](C)O)NC(=O)[C@H](CCCCN)NC(=O)[C@@H](Cc5c[nH]c6ccccc56)NC(=O)[C@H](Cc5ccccc5)NC4=O)CC3)C1=O)[C@]1(C)O[C@H]1[C@H](C)[C@@H]1C[C@@](O)(NC(=O)O1)[C@H](OC)/C=C/C=C(\C)C2 (stereo partly shown) [Conjugate 104]	279	705
